# Assays:
# [1] = tested on: Candida albicans (ATCC no. 10231); experiment: MIC determination by broth microdilution (NCCLS), visual scoring; format: cell-based; conditions: for MIC80: Candida albicans, ATCC10231, read-out: MIC80 C. albicans
# Outline: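 NCCLS broth microdilution in RPMI 1640 with 10 mM HEPES, final compound 0.5–128 μg/mL, DMSO ≤1%. Inoculum from 0.5 McFarland stock diluted 1:50; incubated 35 °C for 48–72 h. MIC scored visually as lowest concentration giving ~80% growth reduction versus drug-free wells.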
# [2] = tested on: Candida glabrata (ATCC no. 48435); experiment: as above; format: cell-based; conditions: for MIC80: Nakaseomyces glabratus, ATCC48435, read-out: MIC80 C. glabrata
# Method: The antifungal activity of the 2,4,6-pyrimidinetrione analogs shown in Schemes 2-6 were evaluated in vitro using Candida albicans (ATCC no. 10231) and Candida glabrata (ATCC no 48435). All assays were done in accordance with NCCLS reference documents^29. The results of these screenings are summarized in Tables 1-9 as the minimal inhibitory concentrations that inhibited more than 80% fungal growth as compared to the positive controls in 1% DMSO and RPMI media. All MIC screens were done using a visual scoring method as opposed to spectroscopic methods of analysis, due to the physical properties of many of the compounds altering their absorbance spectra relative to the positive, negative and drug controls.
# None of the compounds tested over the course of these studies were soluble in water and DMSO was used to dilute each compound tested. Master stock concentrations of all tested compounds were prepared to ensure that the maximum final concentration of DMSO was 1% or less. Subsequent 2-fold serial dilutions were made using sterile water to a final concentration of 1280-5.00 μg/ml. A final 10-fold dilution of each drug was made by aliquotting 0.1 mL of each drug dilution into 0.9 mL of fungal suspension in RPMI 1640 media with 10 mM HEPES buffer added (see methodology below), giving final concentrations tested in the range of 128-0.5 μg/ml.
# Antifungal susceptibility studies and minimal inhibitory concentrations (MIC) values for Candida albicans (ATCC no. 10231) and Candida glabrata (ATCC no. 48435) were determined by the broth microdilution technique in accordance with NCCLS reference documents. Microdilution panels ranged from 0.5 to 128 μg/mL. All organisms were subcultured on Sabouraud agar and passaged to ensure purity and viability. The initiating inocula were prepared by picking 5-7 isolated colonies ˜1 mm in diameter from freshly prepared YM agar plates. Colonies were resuspended in sterile water, vortexed and the cell density was adjusted spectrophotometrically to the transmittance of a 0.5 McFarland standard at a wavelength of 530 nm, to yield a stock suspension of 1×10^6-5×10^6 cells/mL. The stock was allowed to hydrate for 30 minutes at room temperature. A working suspension was then made by diluting the stock 1:50 with RPMI 1640 media containing HEPES buffer. The working suspension was used for all assays. The plates were incubated at 35° C. for 48-72 hours in a humid atmosphere. Growth was scored visually. MIC values are defined as the lowest concentration of agent that prevents any discernible growth, ˜80% reduction of growth, as compared with drug-free control wells. All assays were run in parallel using either fluconazole or amphotericin B at the NCCLS recommended concentrations^29 as a drug control (Sigma-Aldrich).
# [3] = Table 2, 5-Arylidene-2,4,6-pyrimidinetriones
# [4] = Table 1, 5-Acyl-2,4,6-pyrimidinetriones, >80% growth inhibition, RPMI, 1% DMSO
# [5] = Table 5, Schiff Bases of 5-acylpyrimidinetriones
# [6] = Table 8, N-Acylhydrazones of 5-Acylpyrimidinetriones
# [7] = Table 3, 5-Alkylated Pyrimidinetriones
# [8] = Table 4, 5,5-Dialkylated Pyrimidinetriones
# [9] = Table 7, Phenylhydrazones of 5-Acylpyrimidinetriones
smiles,measurement,setting,value
COc1cc(OC)c(C=C2C(=O)N(C)C(=O)N(C)C2=O)c(OC)c1 [BA52],MIC80 C. albicans,[1]; [3],"— (none of the 5-acyl-2,4,6-pyrimidinetriones, 5-alkylated pyrimidinetriones or the 5,5-dialkylated pyrimidinetriones showed antifungal activity through 125 μg/mL)"
same,MIC80 C. glabrata,[2]; [3],"— (none of the 5-acyl-2,4,6-pyrimidinetriones, 5-alkylated pyrimidinetriones or the 5,5-dialkylated pyrimidinetriones showed antifungal activity through 125 μg/mL)"
CC(=O)C1C(=O)NC(=O)N(c2ccccc2)C1=O (stereo not drawn) [BA21],MIC80 C. albicans,[1]; [4],"— (none of the 5-acyl-2,4,6-pyrimidinetriones, 5-alkylated pyrimidinetriones or the 5,5-dialkylated pyrimidinetriones showed antifungal activity through 125 μg/mL)"
same,MIC80 C. glabrata,[2]; [4],"— (none of the 5-acyl-2,4,6-pyrimidinetriones, 5-alkylated pyrimidinetriones or the 5,5-dialkylated pyrimidinetriones showed antifungal activity through 125 μg/mL)"
"C/C(=N\Nc1ccc([N+](=O)[O-])cc1[N+](=O)[O-])C1C(=O)NC(=O)NC1=O [BA26, 5-{(1E)-1-[2-(2,4-Dinitrophenyl)hydrazinylidene]ethyl}pyrimidine-2,4,6-trione]",MIC80,[1],> 125 µg/mL
same,MIC80,[2],> 125 µg/mL
CN1C(=O)C(=CC=Cc2ccccc2)C(=O)N(C)C1=O [BA43],MIC80 C. albicans,[1]; [3],62 µg/mL
same,MIC80 C. glabrata,[2]; [3],125 µg/mL
CC(=Nc1ccc(O)cc1)C1C(=O)N(C)C(=O)N(C)C1=O [BA80],MIC80 C. albicans,[1]; [5],"— (none of the 5-acyl-2,4,6-pyrimidinetriones, 5-alkylated pyrimidinetriones or the 5,5-dialkylated pyrimidinetriones showed antifungal activity through 125 μg/mL)"
same,MIC80 C. glabrata,[2]; [5],"— (none of the 5-acyl-2,4,6-pyrimidinetriones, 5-alkylated pyrimidinetriones or the 5,5-dialkylated pyrimidinetriones showed antifungal activity through 125 μg/mL)"
"O=C1NC(=O)C(C(=O)c2ccccc2)C(=O)N1 [BA1, 5-benzoyl-pyrimidine-2,4,6-trione]",MIC80,[1],> 125 µg/mL
same,MIC80,[2],> 125 µg/mL
COC(=O)NN=CC1C(=O)N(C)C(=O)N(C)C1=O [BA76],MIC80 C. albicans,[1]; [6],"— (none of the 5-acyl-2,4,6-pyrimidinetriones, 5-alkylated pyrimidinetriones or the 5,5-dialkylated pyrimidinetriones showed antifungal activity through 125 μg/mL)"
same,MIC80 C. glabrata,[2]; [6],"— (none of the 5-acyl-2,4,6-pyrimidinetriones, 5-alkylated pyrimidinetriones or the 5,5-dialkylated pyrimidinetriones showed antifungal activity through 125 μg/mL)"
COc1ccc(C(=O)C2C(=O)NC(=O)NC2=O)cc1 [BA14],MIC80 C. albicans,[1]; [4],"— (none of the 5-acyl-2,4,6-pyrimidinetriones, 5-alkylated pyrimidinetriones or the 5,5-dialkylated pyrimidinetriones showed antifungal activity through 125 μg/mL)"
same,MIC80 C. glabrata,[2]; [4],"— (none of the 5-acyl-2,4,6-pyrimidinetriones, 5-alkylated pyrimidinetriones or the 5,5-dialkylated pyrimidinetriones showed antifungal activity through 125 μg/mL)"
CN1C(=O)NC(=O)C(C(=O)c2ccccc2)C1=O (stereo not drawn) [BA2],MIC80 C. albicans,[1]; [4],"— (none of the 5-acyl-2,4,6-pyrimidinetriones, 5-alkylated pyrimidinetriones or the 5,5-dialkylated pyrimidinetriones showed antifungal activity through 125 μg/mL)"
same,MIC80 C. glabrata,[2]; [4],"— (none of the 5-acyl-2,4,6-pyrimidinetriones, 5-alkylated pyrimidinetriones or the 5,5-dialkylated pyrimidinetriones showed antifungal activity through 125 μg/mL)"
O=C1NC(=O)N(c2ccccc2)C(=O)C1C(=O)c1ccc(O)cc1 (stereo not drawn) [BA13],MIC80 C. albicans,[1]; [4],"— (none of the 5-acyl-2,4,6-pyrimidinetriones, 5-alkylated pyrimidinetriones or the 5,5-dialkylated pyrimidinetriones showed antifungal activity through 125 μg/mL)"
same,MIC80 C. glabrata,[2]; [4],"— (none of the 5-acyl-2,4,6-pyrimidinetriones, 5-alkylated pyrimidinetriones or the 5,5-dialkylated pyrimidinetriones showed antifungal activity through 125 μg/mL)"
O=C1NC(=O)N(c2ccccc2)C(=O)C1CC1CCC(O)CC1 (stereo not drawn) [BA65],MIC80 C. albicans,[1]; [7],"— (none of the 5-acyl-2,4,6-pyrimidinetriones, 5-alkylated pyrimidinetriones or the 5,5-dialkylated pyrimidinetriones showed antifungal activity through 125 μg/mL)"
same,MIC80 C. glabrata,[2]; [7],"— (none of the 5-acyl-2,4,6-pyrimidinetriones, 5-alkylated pyrimidinetriones or the 5,5-dialkylated pyrimidinetriones showed antifungal activity through 125 μg/mL)"
CN(C)c1ccc(C=C2C(=O)NC(=O)NC2=O)cc1 [BA53],MIC80 C. albicans,[1]; [3],62 µg/mL
same,MIC80 C. glabrata,[2]; [3],"— (none of the 5-acyl-2,4,6-pyrimidinetriones, 5-alkylated pyrimidinetriones or the 5,5-dialkylated pyrimidinetriones showed antifungal activity through 125 μg/mL)"
COC(=O)NN=CC1C(=O)NC(=O)NC1=O [BA77],MIC80 C. albicans,[1]; [6],"— (none of the 5-acyl-2,4,6-pyrimidinetriones, 5-alkylated pyrimidinetriones or the 5,5-dialkylated pyrimidinetriones showed antifungal activity through 125 μg/mL)"
same,MIC80 C. glabrata,[2]; [6],"— (none of the 5-acyl-2,4,6-pyrimidinetriones, 5-alkylated pyrimidinetriones or the 5,5-dialkylated pyrimidinetriones showed antifungal activity through 125 μg/mL)"
CN(C)c1ccc(CC2(Cc3ccc(N(C)C)cc3)C(=O)NC(=O)NC2=O)cc1 [BA71],MIC80 C. albicans,[1]; [8],"— (none of the 5-acyl-2,4,6-pyrimidinetriones, 5-alkylated pyrimidinetriones or the 5,5-dialkylated pyrimidinetriones showed antifungal activity through 125 μg/mL)"
same,MIC80 C. glabrata,[2]; [8],"— (none of the 5-acyl-2,4,6-pyrimidinetriones, 5-alkylated pyrimidinetriones or the 5,5-dialkylated pyrimidinetriones showed antifungal activity through 125 μg/mL)"
CN1C(=O)C(C(=O)c2cc([N+](=O)[O-])cc([N+](=O)[O-])c2)C(=O)N(C)C1=O [BA9],MIC80 C. albicans,[1]; [4],"— (none of the 5-acyl-2,4,6-pyrimidinetriones, 5-alkylated pyrimidinetriones or the 5,5-dialkylated pyrimidinetriones showed antifungal activity through 125 μg/mL)"
same,MIC80 C. glabrata,[2]; [4],"— (none of the 5-acyl-2,4,6-pyrimidinetriones, 5-alkylated pyrimidinetriones or the 5,5-dialkylated pyrimidinetriones showed antifungal activity through 125 μg/mL)"
"CN1C(=O)C(C(=O)c2ccccc2)C(=O)N(C)C1=O [BA3, 5-benzoyl-1,3-dimethylpyrimidine-2,4,6-trione]",MIC80,[1],> 125 µg/mL
same,MIC80,[2],> 125 µg/mL
COC(=O)NN=C(C)C1C(=O)NC(=O)NC1=O [BA86],MIC80 C. albicans,[1]; [6],"— (none of the 5-acyl-2,4,6-pyrimidinetriones, 5-alkylated pyrimidinetriones or the 5,5-dialkylated pyrimidinetriones showed antifungal activity through 125 μg/mL)"
same,MIC80 C. glabrata,[2]; [6],"— (none of the 5-acyl-2,4,6-pyrimidinetriones, 5-alkylated pyrimidinetriones or the 5,5-dialkylated pyrimidinetriones showed antifungal activity through 125 μg/mL)"
O=C1NC(=O)C(CC2CCC(O)CC2)C(=O)N1 (stereo not drawn) [BA64],MIC80 C. albicans,[1]; [7],"— (none of the 5-acyl-2,4,6-pyrimidinetriones, 5-alkylated pyrimidinetriones or the 5,5-dialkylated pyrimidinetriones showed antifungal activity through 125 μg/mL)"
same,MIC80 C. glabrata,[2]; [7],"— (none of the 5-acyl-2,4,6-pyrimidinetriones, 5-alkylated pyrimidinetriones or the 5,5-dialkylated pyrimidinetriones showed antifungal activity through 125 μg/mL)"
O=C1NC(=O)C(C=Nc2ccccc2O)C(=O)N1 [BA93],inhibitory activity of Candida albicans,"[1]; Schiff base derivatives, Table 5",showed inhibitory activity
same,MIC80 C. albicans,"[1]; Table 5, values marked *: compound displayed MIC with <50% inhibition",8* μg/mL
same,MIC80 C. glabrata,[2]; [5],"— (none of the 5-acyl-2,4,6-pyrimidinetriones, 5-alkylated pyrimidinetriones or the 5,5-dialkylated pyrimidinetriones showed antifungal activity through 125 μg/mL)"
O=C1NC(=O)C(=Cc2ccoc2)C(=O)N1 [BA55],MIC80 C. albicans,[1]; [3],"— (none of the 5-acyl-2,4,6-pyrimidinetriones, 5-alkylated pyrimidinetriones or the 5,5-dialkylated pyrimidinetriones showed antifungal activity through 125 μg/mL)"
same,MIC80 C. glabrata,[2]; [3],"— (none of the 5-acyl-2,4,6-pyrimidinetriones, 5-alkylated pyrimidinetriones or the 5,5-dialkylated pyrimidinetriones showed antifungal activity through 125 μg/mL)"
O=C1NC(=O)N(c2ccccc2)C(=O)C1C(=NNc1ccc([N+](=O)[O-])cc1[N+](=O)[O-])c1ccccc1 (stereo not drawn) [BA32],MIC80 C. albicans,[1]; [9],"— (none of the 5-acyl-2,4,6-pyrimidinetriones, 5-alkylated pyrimidinetriones or the 5,5-dialkylated pyrimidinetriones showed antifungal activity through 125 μg/mL)"
same,MIC80 C. glabrata,[2]; [9],"— (none of the 5-acyl-2,4,6-pyrimidinetriones, 5-alkylated pyrimidinetriones or the 5,5-dialkylated pyrimidinetriones showed antifungal activity through 125 μg/mL)"
COC(=O)NN=C(c1ccc([N+](=O)[O-])cc1)C1C(=O)NC(=O)NC1=O [BA37],MIC80 C. albicans,[1]; [6],"— (none of the 5-acyl-2,4,6-pyrimidinetriones, 5-alkylated pyrimidinetriones or the 5,5-dialkylated pyrimidinetriones showed antifungal activity through 125 μg/mL)"
same,MIC80 C. glabrata,[2]; [6],"— (none of the 5-acyl-2,4,6-pyrimidinetriones, 5-alkylated pyrimidinetriones or the 5,5-dialkylated pyrimidinetriones showed antifungal activity through 125 μg/mL)"

# Reference: patent US20160235752A1, “COMPOSITIONS, METHODS OF USE, AND METHODS OF TREATMENT” (THE UNIVERSITY OF NEW ORLEANS, priority 2013, published 2016)
